Calls of active or inactive are those of the source.
Assays:
[1] = target: Multidrug resistance protein CDR2 (Candida albicans (strain SC5314 / ATCC MYA-2876) (Yeast), UniProt P78595); experiment: CaCDR2 efflux pump inhibitors in yeast, dose response, S. cerevisiae AD1-8u, singleplex, Cherry Pick1 hits (AID 588604); type: functional
[2] = target: Ribosomal protein S6 kinase alpha-3 (Homo sapiens, UniProt P51812); type: functional;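 note: measured within a kinome-wide profiling panel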
[3] = target: Serine/threonine-protein kinase pim-1 (Homo sapiens, UniProt P11309); type: functional
Sequence of Serine/threonine-protein kinase pim-1 (P11309 whole entry): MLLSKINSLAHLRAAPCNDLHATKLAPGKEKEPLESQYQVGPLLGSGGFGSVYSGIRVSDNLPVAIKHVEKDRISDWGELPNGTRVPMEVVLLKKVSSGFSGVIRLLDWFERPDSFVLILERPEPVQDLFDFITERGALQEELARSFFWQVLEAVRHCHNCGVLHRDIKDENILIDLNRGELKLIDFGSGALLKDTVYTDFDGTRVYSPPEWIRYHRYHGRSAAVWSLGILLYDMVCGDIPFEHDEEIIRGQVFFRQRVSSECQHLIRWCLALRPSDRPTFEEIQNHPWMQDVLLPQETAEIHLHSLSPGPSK

[4] = target: Serine/threonine-protein kinase Chk1 (Homo sapiens, UniProt O14757); type: functional;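 note: measured as one member of a kinome-wide kinase profiling panel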
Sequence of Serine/threonine-protein kinase Chk1 (O14757 whole entry): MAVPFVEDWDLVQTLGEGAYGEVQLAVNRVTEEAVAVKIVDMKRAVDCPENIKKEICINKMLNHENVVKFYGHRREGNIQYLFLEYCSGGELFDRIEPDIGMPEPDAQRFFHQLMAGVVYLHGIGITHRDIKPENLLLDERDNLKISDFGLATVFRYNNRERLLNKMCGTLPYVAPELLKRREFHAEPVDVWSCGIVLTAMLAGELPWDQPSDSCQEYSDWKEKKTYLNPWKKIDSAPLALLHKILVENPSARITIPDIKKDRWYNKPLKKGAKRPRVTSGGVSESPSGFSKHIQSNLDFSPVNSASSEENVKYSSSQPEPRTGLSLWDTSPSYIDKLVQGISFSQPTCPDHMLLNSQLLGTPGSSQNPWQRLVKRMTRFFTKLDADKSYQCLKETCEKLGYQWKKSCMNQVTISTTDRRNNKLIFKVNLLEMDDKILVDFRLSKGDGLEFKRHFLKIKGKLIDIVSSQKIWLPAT

[5] = target: Megakaryocyte-associated tyrosine-protein kinase (Homo sapiens, UniProt P42679); type: functional;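 note: affinity measured as one member of a kinase panel (Navigating the Kinome) against MATK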
[6] = target: Interleukin-1 receptor-associated kinase 1 (Homo sapiens, UniProt P51617); type: functional;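 note: IRAK1 tested as one member of a kinome panel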
[7] = target: Serine/threonine-protein kinase BRSK1 (Homo sapiens, UniProt Q8TDC3); type: functional;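 note: measured within a kinome-wide kinase panel, with the target listed as KIAA1811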
[8] = THP-1 cell cytotoxicity, cytotoxicity control, set 6 (AID 602433); type: functional; conditions: Mycobacterium tuberculosis
[9] = target: Dual specificity protein kinase CLK2 (Homo sapiens, UniProt P49760); type: functional
[10] = target: Tyrosine-protein kinase SYK (Homo sapiens, UniProt P43405); type: functional
[11] = target: Serine/threonine-protein kinase D3 (Homo sapiens, UniProt O94806); type: functional;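 note: determined within a kinase panel screen, with PRKCN as the panel member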
Sequence of Serine/threonine-protein kinase D3 (O94806 whole entry): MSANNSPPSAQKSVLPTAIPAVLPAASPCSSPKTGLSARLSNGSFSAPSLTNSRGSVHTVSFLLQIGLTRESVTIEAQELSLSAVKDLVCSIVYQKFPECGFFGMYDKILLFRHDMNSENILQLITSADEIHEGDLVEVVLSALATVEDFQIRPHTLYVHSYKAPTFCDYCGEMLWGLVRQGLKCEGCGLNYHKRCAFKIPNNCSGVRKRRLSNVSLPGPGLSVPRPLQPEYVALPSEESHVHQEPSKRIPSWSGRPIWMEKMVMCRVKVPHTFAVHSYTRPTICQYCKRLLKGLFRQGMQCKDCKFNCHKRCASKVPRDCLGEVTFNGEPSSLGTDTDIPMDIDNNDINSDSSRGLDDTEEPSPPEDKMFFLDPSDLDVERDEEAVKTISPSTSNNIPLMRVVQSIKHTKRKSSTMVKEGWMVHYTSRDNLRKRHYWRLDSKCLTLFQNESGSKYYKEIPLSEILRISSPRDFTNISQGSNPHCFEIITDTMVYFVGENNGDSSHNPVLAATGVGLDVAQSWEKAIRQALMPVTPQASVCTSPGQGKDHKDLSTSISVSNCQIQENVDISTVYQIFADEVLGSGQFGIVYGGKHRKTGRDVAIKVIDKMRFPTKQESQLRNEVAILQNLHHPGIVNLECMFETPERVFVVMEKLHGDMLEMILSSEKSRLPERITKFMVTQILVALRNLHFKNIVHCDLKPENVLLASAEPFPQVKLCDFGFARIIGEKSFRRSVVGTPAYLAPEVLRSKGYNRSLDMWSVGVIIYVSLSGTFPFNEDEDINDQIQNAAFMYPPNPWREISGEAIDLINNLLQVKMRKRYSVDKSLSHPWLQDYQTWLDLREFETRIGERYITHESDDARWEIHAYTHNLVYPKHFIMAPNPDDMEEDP

[12] = target: Serine/threonine-protein kinase 17A (Homo sapiens, UniProt Q9UEE5); type: functional
[13] = target: Death-associated protein kinase 3 (Homo sapiens, UniProt O43293); type: functional;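 note: measured as one member of a kinome-wide profiling panel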
[14] = target: Serine/threonine-protein kinase PAK 4 (Homo sapiens, UniProt O96013); type: functional;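 note: value obtained within a kinome profiling panel in which PAK4 was one of the panel members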
Sequence of Serine/threonine-protein kinase PAK 4 (O96013 whole entry): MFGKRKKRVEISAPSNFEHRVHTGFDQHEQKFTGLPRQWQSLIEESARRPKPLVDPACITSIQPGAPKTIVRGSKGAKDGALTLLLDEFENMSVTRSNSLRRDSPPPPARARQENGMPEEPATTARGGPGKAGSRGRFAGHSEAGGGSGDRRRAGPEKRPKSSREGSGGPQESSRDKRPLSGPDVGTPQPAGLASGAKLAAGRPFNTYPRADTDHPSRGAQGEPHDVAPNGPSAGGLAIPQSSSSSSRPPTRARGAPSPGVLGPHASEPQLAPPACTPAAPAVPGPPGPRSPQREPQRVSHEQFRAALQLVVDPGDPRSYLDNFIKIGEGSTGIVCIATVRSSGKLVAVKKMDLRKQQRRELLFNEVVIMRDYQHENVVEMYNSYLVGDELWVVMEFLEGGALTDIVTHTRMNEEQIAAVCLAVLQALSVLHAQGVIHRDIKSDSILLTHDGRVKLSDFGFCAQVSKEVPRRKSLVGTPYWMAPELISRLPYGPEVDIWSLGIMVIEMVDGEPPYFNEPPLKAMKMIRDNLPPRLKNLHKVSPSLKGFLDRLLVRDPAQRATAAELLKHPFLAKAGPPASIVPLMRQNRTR

[15] = target: Calcium/calmodulin-dependent protein kinase type II subunit delta (Homo sapiens, UniProt Q13557); type: functional
[16] = target: Casein kinase I isoform alpha (Homo sapiens, UniProt P48729); type: functional
Sequence of Casein kinase I isoform alpha (P48729 whole entry, canonical isoform): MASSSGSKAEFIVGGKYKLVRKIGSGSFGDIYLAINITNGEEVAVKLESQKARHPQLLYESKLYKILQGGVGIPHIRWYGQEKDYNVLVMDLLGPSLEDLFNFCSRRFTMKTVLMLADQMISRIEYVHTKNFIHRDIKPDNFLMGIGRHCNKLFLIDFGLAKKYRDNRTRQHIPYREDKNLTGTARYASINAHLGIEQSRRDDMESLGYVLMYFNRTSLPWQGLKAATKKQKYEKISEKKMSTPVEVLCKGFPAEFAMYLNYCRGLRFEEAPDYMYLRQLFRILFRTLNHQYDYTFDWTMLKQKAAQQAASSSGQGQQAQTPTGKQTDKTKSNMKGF

[17] = target: Tyrosine-protein kinase JAK3 (Homo sapiens, UniProt P52333); type: functional
Sequence of Tyrosine-protein kinase JAK3 (P52333 whole entry): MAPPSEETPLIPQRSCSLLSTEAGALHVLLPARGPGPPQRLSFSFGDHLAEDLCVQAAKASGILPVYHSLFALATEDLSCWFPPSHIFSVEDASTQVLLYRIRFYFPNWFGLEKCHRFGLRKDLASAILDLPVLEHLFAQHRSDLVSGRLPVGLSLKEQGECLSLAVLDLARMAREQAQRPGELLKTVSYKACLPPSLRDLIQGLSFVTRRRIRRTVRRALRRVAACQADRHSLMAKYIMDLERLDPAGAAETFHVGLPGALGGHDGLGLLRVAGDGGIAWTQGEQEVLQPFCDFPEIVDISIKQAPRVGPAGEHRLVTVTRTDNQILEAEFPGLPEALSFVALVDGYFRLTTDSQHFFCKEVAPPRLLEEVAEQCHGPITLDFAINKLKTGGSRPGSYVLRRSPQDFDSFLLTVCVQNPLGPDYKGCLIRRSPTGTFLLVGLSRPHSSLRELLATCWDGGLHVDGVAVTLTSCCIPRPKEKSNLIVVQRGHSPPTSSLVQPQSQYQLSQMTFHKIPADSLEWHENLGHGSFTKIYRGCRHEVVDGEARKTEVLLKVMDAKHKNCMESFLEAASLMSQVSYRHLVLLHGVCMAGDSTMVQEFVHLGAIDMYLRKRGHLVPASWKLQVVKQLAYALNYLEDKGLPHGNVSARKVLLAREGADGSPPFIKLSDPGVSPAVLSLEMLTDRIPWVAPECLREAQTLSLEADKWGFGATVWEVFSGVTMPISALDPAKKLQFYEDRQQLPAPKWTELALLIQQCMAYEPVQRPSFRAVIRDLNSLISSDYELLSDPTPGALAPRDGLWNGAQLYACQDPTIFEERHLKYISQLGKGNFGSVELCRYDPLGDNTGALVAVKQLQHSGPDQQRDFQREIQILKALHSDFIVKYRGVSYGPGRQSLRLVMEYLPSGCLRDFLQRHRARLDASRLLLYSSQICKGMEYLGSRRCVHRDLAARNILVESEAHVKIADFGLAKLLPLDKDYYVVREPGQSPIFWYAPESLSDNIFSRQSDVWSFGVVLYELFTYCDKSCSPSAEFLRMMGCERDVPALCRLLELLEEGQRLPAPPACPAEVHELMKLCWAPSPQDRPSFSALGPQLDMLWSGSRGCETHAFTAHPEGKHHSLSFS

[18] = target: Serine/threonine-protein kinase N2 (Homo sapiens, UniProt Q16513); type: functional
[19] = target: Homeodomain-interacting protein kinase 2 (Homo sapiens, UniProt Q9H2X6); type: functional;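 note: measured within a kinome-wide kinase profiling panel, HIPK2 being one panel member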
[20] = target: Receptor-type tyrosine-protein kinase FLT3 (Homo sapiens, UniProt P36888); type: functional;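 note: FLT3 was tested as one member of a kinome-wide kinase panel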
[21] = target: Misshapen-like kinase 1 (Homo sapiens, UniProt Q8N4C8); type: functional;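 note: kinome panel screen with MINK as the panel member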
[22] = target: cAMP-dependent protein kinase catalytic subunit PRKX (Homo sapiens, UniProt P51817); type: functional
[23] = target: Maternal embryonic leucine zipper kinase (Homo sapiens, UniProt Q14680); type: functional
[24] = target: Mitogen-activated protein kinase kinase kinase kinase 5 (Homo sapiens, UniProt Q9Y4K4); type: functional;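 note: measured as one member of a kinome-spanning kinase panel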
[25] = target: Cyclin-dependent kinase 8 (Homo sapiens, UniProt P49336); experiment: Navigating the Kinome. Panel member name: CDK8; type: functional
Sequence of Cyclin-dependent kinase 8 (P49336 whole entry): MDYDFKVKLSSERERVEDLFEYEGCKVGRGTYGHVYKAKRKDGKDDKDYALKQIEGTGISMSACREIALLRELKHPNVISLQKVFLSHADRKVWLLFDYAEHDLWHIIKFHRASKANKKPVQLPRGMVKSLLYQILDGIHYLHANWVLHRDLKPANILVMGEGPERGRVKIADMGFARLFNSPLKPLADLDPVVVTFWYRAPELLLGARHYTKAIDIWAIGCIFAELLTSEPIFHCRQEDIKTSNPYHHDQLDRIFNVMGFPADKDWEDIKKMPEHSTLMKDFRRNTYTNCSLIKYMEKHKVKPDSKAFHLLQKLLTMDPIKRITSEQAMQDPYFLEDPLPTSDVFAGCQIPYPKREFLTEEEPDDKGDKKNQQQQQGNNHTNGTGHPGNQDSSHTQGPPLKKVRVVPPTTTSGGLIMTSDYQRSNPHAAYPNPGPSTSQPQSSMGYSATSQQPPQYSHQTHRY

[26] = target: Cyclin-dependent kinase 7 (Homo sapiens, UniProt P50613); type: functional;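 note: value comes from a kinome-wide kinase profiling panel in which CDK7 is one member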
Sequence of Cyclin-dependent kinase 7 (P50613 whole entry): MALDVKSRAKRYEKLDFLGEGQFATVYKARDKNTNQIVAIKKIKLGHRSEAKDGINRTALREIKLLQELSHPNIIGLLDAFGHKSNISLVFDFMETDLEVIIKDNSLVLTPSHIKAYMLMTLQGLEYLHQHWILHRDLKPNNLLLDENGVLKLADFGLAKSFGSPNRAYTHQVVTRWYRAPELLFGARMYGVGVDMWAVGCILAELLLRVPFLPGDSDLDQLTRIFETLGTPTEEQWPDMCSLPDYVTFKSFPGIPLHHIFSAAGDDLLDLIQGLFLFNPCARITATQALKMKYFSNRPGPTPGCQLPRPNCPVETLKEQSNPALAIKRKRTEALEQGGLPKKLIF

[27] = target: Glycogen synthase kinase-3 beta (Homo sapiens, UniProt P49841); type: functional;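 note: value comes from a broad kinome profiling panel, with GSK3B as the panel member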
[28] = target: Cyclin-dependent kinase 9 (Homo sapiens, UniProt P50750); type: functional;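 note: value from the CDK9 entry of a kinome-spanning kinase panel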
[29] = target: cAMP-dependent protein kinase catalytic subunit alpha (Homo sapiens, UniProt P17612); type: functional
[30] = target: Dual specificity protein kinase CLK4 (Homo sapiens, UniProt Q9HAZ1); type: functional
Sequence of Dual specificity protein kinase CLK4 (Q9HAZ1 whole entry): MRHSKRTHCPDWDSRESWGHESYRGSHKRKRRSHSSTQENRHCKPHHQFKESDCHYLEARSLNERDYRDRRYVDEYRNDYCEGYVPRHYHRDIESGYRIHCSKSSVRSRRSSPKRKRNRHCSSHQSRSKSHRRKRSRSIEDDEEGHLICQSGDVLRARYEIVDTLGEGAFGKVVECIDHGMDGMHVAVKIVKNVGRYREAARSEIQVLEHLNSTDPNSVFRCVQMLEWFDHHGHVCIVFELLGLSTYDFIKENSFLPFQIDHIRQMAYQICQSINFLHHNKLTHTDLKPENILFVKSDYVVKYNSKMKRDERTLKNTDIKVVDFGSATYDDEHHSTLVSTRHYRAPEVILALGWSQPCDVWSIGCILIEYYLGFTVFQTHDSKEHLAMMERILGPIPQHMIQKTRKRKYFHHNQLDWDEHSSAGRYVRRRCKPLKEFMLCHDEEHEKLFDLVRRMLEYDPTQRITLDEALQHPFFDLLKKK

[31] = target: Mitogen-activated protein kinase kinase kinase kinase 4 (Homo sapiens, UniProt O95819); type: functional
[32] = target: Serine/threonine-protein kinase 3 (Homo sapiens, UniProt Q13188); type: functional;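 note: measured as one member of a kinome-wide kinase panel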
[33] = target: Serine/threonine-protein kinase D2 (Homo sapiens, UniProt Q9BZL6); type: functional;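 note: measured against PRKD2 as one member of a kinome-wide kinase profiling panel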
[34] = target: Eukaryotic elongation factor 2 kinase (Homo sapiens, UniProt O00418); type: functional
[35] = target: Testis-specific serine/threonine-protein kinase 2 (Homo sapiens, UniProt Q96PF2); type: functional;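 note: part of the Navigating the Kinome panel, target entry STK22B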
[36] = target: Protein kinase C gamma type (Homo sapiens, UniProt P05129); type: functional
[37] = target: MAP kinase-activated protein kinase 3 (Homo sapiens, UniProt Q16644); type: functional;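 note: value comes from a kinome-wide profiling panel in which MAPKAPK3 is one of the panel members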
[38] = target: Dual specificity tyrosine-phosphorylation-regulated kinase 4 (Homo sapiens, UniProt Q9NR20); type: functional
[39] = target: Lymphokine-activated killer T-cell-originated protein kinase (Homo sapiens, UniProt Q96KB5); type: functional;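 note: value comes from a kinase panel screen in which TOPK was one of the panel members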
[40] = target: ALK tyrosine kinase receptor (Homo sapiens, UniProt Q9UM73); type: functional;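 note: ALK tested as one member of a kinase panel screen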
[41] = target: Tyrosine-protein kinase Lck (Homo sapiens, UniProt P06239); type: functional;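 note: lck was assayed as one member of a kinase panel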
[42] = target: Activin receptor type-1 (Homo sapiens, UniProt Q04771); experiment: Navigating the Kinome. Panel member name: ACVR1; type: functional
[43] = target: Mitogen-activated protein kinase 8 (Homo sapiens, UniProt P45983); type: functional;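 note: value comes from one member of a kinome-wide kinase profiling panel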
[44] = target: Tyrosine-protein kinase BTK (Homo sapiens, UniProt Q06187); type: functional
[45] = target: Fibroblast growth factor receptor 1 (Homo sapiens, UniProt P11362); type: functional
[46] = target: LIM domain kinase 1 (Homo sapiens, UniProt P53667); experiment: Navigating the Kinome. Panel member name: LIMK1; type: functional
[47] = target: Serine/threonine-protein kinase TAO1 (Homo sapiens, UniProt Q7L7X3); type: functional
[48] = target: Glycogen synthase kinase-3 alpha (Homo sapiens, UniProt P49840); type: functional;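 note: GSK3A result taken from a broad kinome-wide kinase panel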
[49] = target: G protein-coupled receptor kinase 5 (Homo sapiens, UniProt P34947); experiment: Navigating the Kinome. Panel member name: GPRK5; type: functional
[50] = target: Focal adhesion kinase 1 (Homo sapiens, UniProt Q05397); type: functional;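 note: measured as one member of a kinome panel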
[51] = target: Aurora kinase B (Homo sapiens, UniProt Q96GD4); type: functional
[52] = target: Tyrosine-protein kinase Fyn (Homo sapiens, UniProt P06241); type: functional
[53] = target: Calcium/calmodulin-dependent protein kinase type II subunit alpha (Homo sapiens, UniProt Q9UQM7); experiment: Navigating the Kinome. Panel member name: CAMK2A; type: functional
[54] = target: Leukocyte tyrosine kinase receptor (Homo sapiens, UniProt P29376); experiment: Navigating the Kinome. Panel member name: LTK; type: functional
[55] = target: Mitogen-activated protein kinase 14 (Homo sapiens, UniProt Q16539); type: functional;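 note: part of a kinome-wide panel, MAPK14 entry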
[56] = system: Streptococcus sp. 'group A'; experiment: growth inhibition of control SK(-) GAS strain, dose response, counter-screen for streptokinase expression inhibitor project, luminescence, kanamycin, BacTiterGlo, confirmation (AID 1900); type: functional, organism-based
[57] = target: T1, Streptokinase A (Streptococcus pyogenes serotype M1, UniProt P10520); experiment: S. pyogenes streptokinase expression inhibitors, potency, dose response, plasminogen activation absorbance, OD405 (AID 1914); type: functional, Streptococcus pyogenes M1 GAS;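 note: secreted streptokinase activity via plasminogen activation per viability signal from cell pellet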
T1 sequence (P10520 whole entry): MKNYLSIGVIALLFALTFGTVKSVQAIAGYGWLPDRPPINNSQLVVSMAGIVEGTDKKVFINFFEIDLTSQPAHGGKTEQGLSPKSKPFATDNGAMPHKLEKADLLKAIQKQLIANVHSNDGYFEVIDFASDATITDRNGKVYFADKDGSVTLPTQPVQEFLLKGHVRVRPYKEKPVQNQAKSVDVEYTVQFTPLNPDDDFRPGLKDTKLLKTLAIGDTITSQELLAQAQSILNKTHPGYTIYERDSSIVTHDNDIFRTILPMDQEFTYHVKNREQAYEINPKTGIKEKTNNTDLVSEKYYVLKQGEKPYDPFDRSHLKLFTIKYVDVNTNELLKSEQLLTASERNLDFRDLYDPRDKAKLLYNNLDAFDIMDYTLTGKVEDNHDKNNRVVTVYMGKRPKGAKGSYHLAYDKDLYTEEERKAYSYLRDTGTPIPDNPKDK

[58] = system: Streptococcus; experiment: Group A Streptococcus viability loss, dose response, counter-screen for streptokinase expression inhibitor project, luminescence, BacTiterGlo (AID 1915); type: functional, organism-based;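 note: potency for reduction of bacterial viability or growth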
[59] = target: T2, Bcl-2-related protein A1 (Mus musculus, UniProt Q07440); type: functional;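 note: confirmatory dose–response counterscreen on Bfl-1, used to check hits from a UBC13 polyubiquitin inhibitor campaign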
T2 sequence (Q07440 whole entry): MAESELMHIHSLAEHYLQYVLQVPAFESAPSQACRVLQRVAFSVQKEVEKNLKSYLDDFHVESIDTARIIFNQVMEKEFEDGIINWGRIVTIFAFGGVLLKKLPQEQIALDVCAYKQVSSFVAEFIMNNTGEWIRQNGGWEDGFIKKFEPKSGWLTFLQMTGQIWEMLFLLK

[60] = target: T3, Ubiquitin-conjugating enzyme E2 N (Homo sapiens, UniProt P61088); type: functional
T3 sequence (P61088 whole entry): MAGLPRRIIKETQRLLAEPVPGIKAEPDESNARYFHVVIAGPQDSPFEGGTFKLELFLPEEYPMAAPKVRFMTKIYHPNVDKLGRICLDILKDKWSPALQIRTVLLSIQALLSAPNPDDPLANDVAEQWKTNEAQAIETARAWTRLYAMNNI

[61] = target: T3, Ubiquitin-conjugating enzyme E2 N; type: functional; remark: listed apart in the source
[62] = target: Apelin receptor (Homo sapiens, UniProt P35414); experiment: APJ beta-arrestin recruitment antagonism, SAR follow-up, selectivity assay for CCR6 antagonist project, cell-based, luminescent, enzyme-fragment complementation (AID 588359); type: functional
[63] = target: C-X-C chemokine receptor type 5 (Homo sapiens, UniProt P32302); experiment: CXCR5 receptor antagonists, SAR follow-up, selectivity assay for CCR6 antagonist project, cell-based, beta-arrestin, luminescence, CHO-K1 PathHunter (AID 540340); type: functional
[64] = target: C-C chemokine receptor type 6 (Homo sapiens, UniProt P51684); experiment: CCR6 receptor antagonists, SAR follow-up, cell-based, luminescent beta-arrestin readout (AID 540334); type: functional
[65] = target: Voltage-gated inwardly rectifying potassium channel KCNH2 (Homo sapiens, UniProt Q12809); conditions: Potency;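 note: confirmatory quantitative high-throughput screen measuring inhibition of hERG channel activity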

In the case of `CCCCSC1=N/C(=C/c2ccsc2)C(=O)N1c1ccccc1`, the EC50 [1] is reported as 10.3 µM (active).

In the case of `Cc1ccc2c(=O)[nH]cnc2c1`, the Ki [2] is reported as 5.01 µM (active), the Ki [3] is reported as 7.94 µM (active) and the Ki [4] is reported as 15.8 µM (active).

With `CC1=NN(c2ccc(C(=O)O)cc2)C(=O)C1=Cc1c(C)cc2nc3ccccc3n2c1O` the Ki [5] was 1.58 µM (active), the Ki [6] was 6.31 µM (active) and the Ki [7] was 5.01 µM (active).

With `COCCNC(=O)CSc1nc2ccccc2c(=O)[nH]1` the CC50 [8] was > 100 µM (active).

With `O=C(O)c1ccccc1Nc1ncnc(Nc2ccc3cn[nH]c3c2)n1` the Ki [9] was 3.16 µM (active), the Ki [10] was 0.501 µM (active) and the Ki [11] was 0.398 µM (active). For the same compound, the Ki [12] was 0.02 µM (active), the Ki [13] was 0.2 µM (active) and the Ki [3] was 1 µM (active). The Ki [14] was 1 µM (active), the Ki [15] was > 3.16 µM (inactive) and the Ki [16] was 2 µM (active). For the same compound, the Ki [17] was 1 µM (active), the Ki [18] was 2 µM (active) and the Ki [19] was 0.158 µM (active). The Ki [20] was 0.0631 µM (active), the Ki [21] was > 2.51 µM (inactive) and the Ki [22] was 1 µM (active). The Ki [23] was 0.158 µM (active), the Ki [24] was 2.51 µM (active) and the Ki [25] was > 3.98 µM (inactive). For the same compound, the Ki [26] was 1.58 µM (active), the Ki [27] was 0.0158 µM (active) and the Ki [28] was 0.2 µM (active). For the same compound, the Ki [29] was 3.98 µM (active), the Ki [30] was 0.126 µM (active) and the Ki [31] was 2 µM (active). For the same compound, the Ki [32] was 0.501 µM (active).

In the case of `CCN(CC)CCNC(=O)c1c(C)[nH]c(C=C2C(=O)Nc3ccc(F)cc32)c1C`, the Ki [33] is reported as 0.398 µM (active), the Ki [34] is reported as > 3.98 µM (inactive) and the Ki [35] is reported as 0.631 µM (active). The Ki [36] was > 6.31 µM (inactive), the Ki [37] was > 10 µM (inactive) and the Ki [38] was > 7.94 µM (inactive). The Ki [39] was > 10 µM (inactive).

With `CCN(CC)CCNc1ccc(O)c2ccccc12` the Ki [40] was > 6.31 µM (inactive), the Ki [11] was > 3.98 µM (inactive) and the Ki [41] was > 6.31 µM (inactive). The Ki [13] was > 5.01 µM (inactive), the Ki [42] was > 3.98 µM (inactive) and the Ki [43] was > 5.01 µM (inactive). The Ki [3] was 2.51 µM (active), the Ki [44] was > 6.31 µM (inactive) and the Ki [14] was > 5.01 µM (inactive). For the same compound, the Ki [45] was > 3.98 µM (inactive), the Ki [16] was > 3.98 µM (inactive) and the Ki [17] was > 5.01 µM (inactive). The Ki [46] was 0.794 µM (active), the Ki [47] was > 6.31 µM (inactive) and the Ki [48] was > 3.98 µM (inactive). For the same compound, the Ki [4] was 0.398 µM (active), the Ki [49] was > 3.98 µM (inactive) and the Ki [50] was > 6.31 µM (inactive). The Ki [51] was > 3.98 µM (inactive), the Ki [52] was > 6.31 µM (inactive) and the Ki [25] was > 3.98 µM (inactive). For the same compound, the Ki [26] was > 3.98 µM (inactive), the Ki [30] was 2 µM (active) and the Ki [31] was > 5.01 µM (inactive). For the same compound, the Ki [53] was > 3.98 µM (inactive), the Ki [54] was 2 µM (active) and the Ki [55] was > 3.98 µM (inactive).

For `CCCCCCCCCCCCC/C=C/[C@@H](O)[C@@H](N)CO` [SPHINGOSINE], the EC50 [56] was 1.52 µM (active), the EC50 [57] was > 150 µM (not active) and the EC50 [58] was 8.1 µM (active). The IC50 [59] was > 20 µM (inactive), the IC50 [60] was 6.42 µM (active) and the IC50 [61] was 6.2 µM (active). The IC50 [62] was > 66.6 µM (inactive), the IC50 [63] was 32.5 µM (inactive) and the IC50 [64] was 20.9 µM (inactive). The AC50 [65] was 35.5 µM (inconclusive).
